In brackets after ≈: the same amount, converted by molar mass.
Legend:
[1] = tested on: MRSA; experiment: MIC, antibacterial activity; type: cell-based, Staphylococcus aureus; settings: strain C, Gram-positive
[2] = tested on: E. coli BL21 (DE3); experiment: MIC, antibacterial activity; type: cell-based
[3] = tested on: S. aureus NorA; experiment: MIC, antibacterial activity; type: cell-based
[4] = tested on: B. cereus ATCC11778; experiment: MIC, antibacterial activity; type: cell-based; settings: strain H, Gram-positive
[5] = tested on: L. monocyfogenes ATCC19115; experiment: MIC, antibacterial activity; type: cell-based, L. monocytogenes; settings: strain L, Gram-positive
[6] = tested on: B. subtilis 168; experiment: MIC, antibacterial activity; type: cell-based; settings: strain F, Gram-positive
[7] = tested on: VRE; experiment: MIC, antibacterial activity; type: cell-based, Enterococcus; settings: strain J, Gram-positive
[8] = tested on: S. epidermidis AJCCM228; experiment: MIC, antibacterial activity; type: cell-based
[9] = tested on: B. anthracis 34F2 Sterne strain; type: cell-based; settings: strain I, Gram-positive
[10] = tested on: E. coli BL21 (DE3) with AAC(3)-IV-lnt-pET19b-pps; experiment: MIC, antibacterial activity; type: cell-based
[11] = tested on: E. coli BL21 (DE3) with Eis; experiment: MIC, antibacterial activity; type: cell-based
[12] = tested on: S. mutans UA159; experiment: MIC, antibacterial activity; type: cell-based
[13] = tested on: Shigella clinical isolate 6831; experiment: MIC, antibacterial activity; type: cell-based
[14] = tested on: E. coli BL21 (DE3) with AAC(6')/APH(2”)-pET22b; experiment: MIC, antibacterial activity; type: cell-based
[15] = tested on: E. coli MC1061; experiment: MIC, antibacterial activity; type: cell-based
[16] = tested on: S. pyogenes serotype M12 (strain MGAS9429); experiment: MIC, antibacterial activity; type: cell-based
[17] = tested on: E. faecalis ATCC29212; experiment: MIC, antibacterial activity; type: cell-based
[18] = tested on: E. coli TolC; experiment: MIC, antibacterial activity; type: cell-based
[19] = tested on: S. enterica ATCC14028; experiment: MIC, antibacterial activity; type: cell-based; settings: strain U, Gram-negative
[20] = tested on: B. subtilis 168 with AAC(6')/APH(2”)-pRB374; experiment: MIC, antibacterial activity; type: cell-based; settings: strain G, Gram-positive
[21] = tested on: E coli BL21 (DE3) with pET22b; experiment: MIC, antibacterial activity; type: cell-based
[22] = tested on: S. pyogenes; experiment: Time of kill assay; type: cell-based; settings: at MIC (4e 2.3 μg/mL, TOB 18.8 μg/mL); after 3 hours of incubation
[23] = tested on: rat RBCs; experiment: Hemolysis assay; settings: 1 h at 37 °C
[24] = tested on: human RBCs; experiment: Hemolysis assay; settings: 1 h at 37 °C
[25] = tested on: S. mutans UA159; experiment: Time of kill assay; type: cell-based; settings: at MIC (4e 2.3 μg/mL, TOB 75 μg/mL); after 5 hours of incubation
[26] = tested on: luciferase translation in lysates of E. coli; settings: read-out: IC50, inhibition of luciferase translation; cited from earlier work
[27] = tested on: B. subtilis with constitutive YFP expression (PY79); experiment: Fluorescence microscopy of YFP-expressing bacteria; type: cell-based

SMILES	MIC [1] [µg/mL]	MIC ([2]; strain M, Gram-negative) [µg/mL]	MIC ([3]; strain B, Gram-positive) [µg/mL]	MIC [4] [µg/mL]	MIC [5] [µg/mL]	MIC [6] [µg/mL]	MIC [7] [µg/mL]	MIC [9] [µg/mL]	MIC ([10]; strain P, Gram-negative) [µg/mL]	MIC ([11]; strain Q, Gram-negative) [µg/mL]	MIC ([12]; strain E, Gram-positive) [µg/mL]	MIC ([14]; strain O, Gram-negative) [µg/mL]	MIC ([15]; strain S, Gram-negative) [µg/mL]	MIC ([16]; strain D, Gram-positive) [µg/mL]	MIC ([17]; strain K, Gram-positive) [µg/mL]	MIC ([18]; strain R, Gram-negative) [µg/mL]	MIC [19] [µg/mL]	MIC [20] [µg/mL]	MIC ([21]; strain N, Gram-negative) [µg/mL]	other results
CCCCCCCCCCSCC1OC(OC2C(N)CC(N)C(OC3OC(CN)C(O)CC3N)C2O)C(O)C(N)C1O (stereo not drawn) [4c]	75 (≈ 120 µM)	75 (≈ 120 µM)	37.5 (≈ 60.1 µM)	18.8 (≈ 30.1 µM)	37.5 (≈ 60.1 µM)	37.5 (≈ 60.1 µM)														
CCCCCCCCCCCCCCS(=O)(=O)CC1OC(OC2C(N)CC(N)C(OC3OC(CN)C(O)CC3N)C2O)C(O)C(N)C1O (stereo not drawn) [6e]	18.8 (≈ 26.4 µM)	18.8 (≈ 26.4 µM)	18.8 (≈ 26.4 µM)				37.5 (≈ 52.7 µM)													
CCCCCCCCSCC1OC(OC2C(N)CC(N)C(OC3OC(CN)C(O)CC3N)C2O)C(O)C(N)C1O (stereo not drawn) [4b]	>150	>150	150 (≈ 252 µM)	150 (≈ 252 µM)	>150	37.5 (≈ 62.9 µM)	>150	75 (≈ 126 µM)	>150	>150	150 (≈ 252 µM)	>150	75 (≈ 126 µM)	150 (≈ 252 µM)	>150	9.4 (≈ 15.8 µM)	>150	>150	>150	MIC ([8]; strain A, Gram-positive): 75 µg/mL (≈ 126 µM); MIC ([13]; strain T, Gram-negative): >150 µg/mL
NC[C@H]1O[C@H](O[C@H]2[C@H](O)[C@@H](O[C@H]3O[C@H](CO)[C@@H](O)[C@H](N)[C@H]3O)[C@H](N)C[C@@H]2N)[C@H](N)C[C@@H]1O [TOB, tobramycin, reference compound]												>150								MIC ([1]; Staphylococcus aureus, MRSA): ≥ 150 µg/mL; MIC ([8]; Staphylococcus epidermidis, AJCCM228): 0.3 µg/mL (≈ 0.642 µM); MIC ([10]; Escherichia coli): 150 µg/mL (≈ 321 µM); MIC ([11]; Escherichia coli): 18.8 µg/mL (≈ 40.2 µM); MIC ([12]; Streptococcus mutans, UA159): 75 µg/mL (≈ 160 µM); MIC ([13]; Shigella): 18.8 µg/mL (≈ 40.2 µM); MIC ([2]; Escherichia coli): 4.7 µg/mL (≈ 10.1 µM); MIC ([3]; Staphylococcus aureus): 9.4 µg/mL (≈ 20.1 µM); MIC ([14]; Escherichia coli): > 150 µg/mL; MIC ([15]; Escherichia coli, MC1061): 9.4 µg/mL (≈ 20.1 µM); MIC ([16]; Streptococcus pyogenes): 18.8 µg/mL (≈ 40.2 µM); MIC ([17]; Enterococcus faecalis, ATCC29212): 150 µg/mL (≈ 321 µM); Time of kill: viable bacteria after incubation [22]: almost no reduction in bacterial growth; MIC ([18]; Escherichia coli): 4.7 µg/mL (≈ 10.1 µM); hemolysis of rat RBCs ([23]; 75 μg/mL): no measurable hemolysis; hemolysis of human RBCs ([24]; 75 μg/mL): no measurable hemolysis; MIC ([7]; Enterococcus, VRE): ≥ 150 µg/mL; Time of kill: viable bacteria after incubation [25]: almost no reduction in bacterial growth; MIC ([21]; Escherichia coli): 9.4 µg/mL (≈ 20.1 µM); IC50 [26]: ~0.02 µM
CCCCCCCCCCCCSCC1OC(OC2C(N)CC(N)C(OC3OC(CN)C(O)CC3N)C2O)C(O)C(N)C1O (stereo not drawn) [4d]	37.5 (≈ 57.5 µM)	18.8 (≈ 28.8 µM)			18.8 (≈ 28.8 µM)								18.8 (≈ 28.8 µM)							
CCCCCCCCCCCCCCSC[C@H]1O[C@H](O[C@@H]2[C@@H](O)[C@H](O[C@H]3O[C@H](CN)[C@@H](O)C[C@H]3N)[C@@H](N)C[C@H]2N)[C@H](O)[C@@H](N)[C@@H]1O [4e]	9.4 (≈ 13.8 µM)	4.7 (≈ 6.91 µM)	9.4 (≈ 13.8 µM)		9.4 (≈ 13.8 µM)		18.8 (≈ 27.6 µM)	0.3 (≈ 0.441 µM)	2.3 (≈ 3.38 µM)	4.7 (≈ 6.91 µM)	2.3 (≈ 3.38 µM)	4.7 (≈ 6.91 µM)	4.7 (≈ 6.91 µM)	2.3 (≈ 3.38 µM)	75 (≈ 110 µM)	4.7 (≈ 6.91 µM)	37.5 (≈ 55.1 µM)	4.7 (≈ 6.91 µM)	4.7 (≈ 6.91 µM)	Cell viability / YFP fluorescence by microscopy [27]: a significant drop in fluorescence; Time of kill: viable bacteria after incubation [22]: no viable bacteria remained; hemolysis of rat RBCs ([23]; 18.8 μg/mL): 19.5 ± 0.3%; hemolysis of human RBCs ([24]; 18.8 μg/mL): 14.3 ± 1.7%; Time of kill: viable bacteria after incubation [25]: no viable bacteria remained
CCCCCCCCCCCCS(=O)(=O)CC1OC(OC2C(N)CC(N)C(OC3OC(CN)C(O)CC3N)C2O)C(O)C(N)C1O (stereo not drawn) [6d]	75 (≈ 110 µM)	75 (≈ 110 µM)	37.5 (≈ 54.8 µM)	9.4 (≈ 13.7 µM)	9.4 (≈ 13.7 µM)	4.7 (≈ 6.87 µM)	75 (≈ 110 µM)	2.3 (≈ 3.36 µM)	>150	>150	9.4 (≈ 13.7 µM)	>150	18.8 (≈ 27.5 µM)	18.8 (≈ 27.5 µM)	9.4 (≈ 13.7 µM)	2.3 (≈ 3.36 µM)	>150	>150	>150	MIC ([8]; strain A, Gram-positive): 9.4 µg/mL (≈ 13.7 µM); MIC ([13]; strain T, Gram-negative): >150 µg/mL

From PMC3390782 (Angewandte Chemie (International Ed. in English), 2012)
